Assays:
Streptococcus mutans = conditions: cited from earlier work
Porphyromonas gingivalis = conditions: cited from earlier work
Escherichia coli = conditions: cited from earlier work
Enterococcus faecalis = conditions: cited from earlier work
Lactobacillus reuteri = conditions: cited from earlier work
Aspergillus spp. = conditions: cited from earlier work
[1] = tested on: Staphylococcus aureus MRSA; conditions: cited from earlier work
[2] = tested on: Vancomycin-resistant Enterococcus faecalis (VRE, ATCC BAA-2573); experiment: Synergy checkerboard assay / broth micro-dilution MIC (ISO 20776-1 with modifications); type: cell-based
Protocol: • 1. Preparation of the inoculum of Vancomycin-resistant Enterococcus faecalis (VRE, ATCC BAA-2573). Inoculum is prepared by suspension of 1 colony of bacteria (medium size colony from Tryptic Soy agar plate) in 3 ml of Tryptic Soy broth (TSB) using a 200 μL tip. The solution is mixed by vortexing and incubated at 37° C. overnight (19-24 hours) under shaking at 200 rpm. • 2. Preparation of the Antimicrobial dilution on the day of the experiment. Stock solutions are performed with distilled water for all antimicrobial compound except for Fluometacyl (ethanol). Dilution for each condition is made in Mueller-Hinton broth (NMB). 50p of APIs dilution is added to wells of a 96 wells microplate (each condition in duplicate-triplicate). • Antimicrobial compounds were prepared as follows: • Fluometacyl (F) (4 mg/mL in 100% EtOH) served as a master stock. To obtain the final concentration of 40 μg/ml in the bacterial suspension, initial stock of 160 μg/ml in Mueller-Hinton broth (MHB) was prepared and further 2-fold diluted using the following serial dilution scheme: • (1): 40 μg/ml (160 μg/ml, prepared in MHB) • (2): 20 μg/ml (80 μg/ml, dilution in MHB) • (3): 10 μg/ml (40 μg/ml, dilution in MHB) • (4): 5 μg/ml (20 μg/ml, dilution in MHB) • (5): 2.5 μg/ml (10 μg/ml, dilution in MHB) • (6): 1.25 μg/ml (5 μg/ml, dilution in MHB) • Chlorhexidine acetate (CHLX) (2 mg/mL in H2O) served as a master stock. To obtain the final concentration of 4 μg/ml in the bacterial suspension, initial stock of 16 μg/ml in MHB was prepared and further 2-fold diluted using the following serial dilution scheme: • (1): 8 μg/ml (32 μg/ml, prepared in MHB) • (2): 4 μg/ml (16 μg/ml, prepared in MHB) • (3): 2 μg/ml (8 μg/ml, dilution in MHB) • (4): 1 μg/ml (4 μg/ml, dilution in MHB) • (5): 0.5 μg/ml (2 μg/ml, dilution in MHB) • (6): 0.25 μg/ml (1 μg/ml, dilution in MHB) • 3. Preparation of VRE. Before the experiment, the VRE bacterial suspension (incubated overnight) is diluted 100× in TSB in 4 mL of TSB and grown at 37 C under agitation 200 rpm until OD600 reaches 0.08 to 0.16. This corresponds to the cell density […]. 100 μl of the bacterial solution (OD600 ranging from 0.08 to 0.16) is added to 9 900 μL of Mueller-Hinton Broth (MHB) (dilution 1:100). • 4. Preparation of a 96-well plate. 100 μL of bacteria (diluted 1:100 in MHB from the point 3) is added in each well of the plate containing 100 μL of the serially diluted APIs alone or in combinations as shown in the p. 2. Bacteria should be added into the 96-well plate within the 30 minutes following the preparation of the bacteria in order to maintain the same number of CFU/mL. Plates are incubated at 37° C. overnight. A condition with MHB medium alone or bacteria without APIs will also be added as the control conditions. Since fluometacyl is dissolved in ethanol, extra conditions are added: MHB with ethanol in order to assess the effect of ethanol on bacterial growth. • Following scheme is applied: • 2 antibacterial compounds: 50 μL of a antimicrobial 1+50 μL of a antimicrobial 2+100 μL of bacterial suspension in MHB • 1 antibacterial compound: 50 μL of a drug 1/2+50 μL of MHB+100 μL of bacterial suspension in MHB • Growth control: 100 μL MHB (+/−Ethanol)+100 μL of bacterial suspension • BLANK: MHB only • 5. CFU counting of the initial challenge inoculum. 10 μL of the solution of the bacteria used as the positive control is diluted in 10 mL of TSB. 100 μL is spread on Tryptic Soy agar (done in triplicate) and incubated at 37° C. overnight • 6. Results. The MIC is the lowest concentration that inhibits completely the visible growth of the bacteria (no turbidity in a well). The OD at 600 nm is also recorded for each well as back-up data.
Synergy evaluation resulting from the comparison between activity of the combination of the antimicrobial compounds and their individual activities was represented as the Fractional Inhibitory Concentration (FIC) index value. […]

Candida albicans (CA) = experiment: MIC in monotherapy and in combination therapy (ISO standard 20776-1); type: cell-based
Description: (§1) Summary of MIC Values for Fluometacyl (FLC)+Chlorhexidine (CHX) Tested Against MRSA, Enterococcus faecalis (VRE), Pseudomonas aeruginosa (PA) and Candida albicans (CA).
(§2) By Minimum Inhibitory Concentration (MIC) one means the lowest concentration of antimicrobial that prevents visible growth of a microorganism (determined according to ISO standard 20776-1).
(§3) This finds an implication in combining many known antimicrobials together rather than discovering new chemical entities.

[3] = tested on: Pseudomonas aeruginosa (PA); experiment: as above; type: cell-based
Description: as §1, §2, §3

[4] = tested on: Staphylococcus aureus (MRSA); experiment: as above; type: cell-based
Description: as §1, §2, §3

Pseudomonas aeruginosa = conditions: cited from earlier work
[5] = tested on: Lactobacillus acidophilus; conditions: cited from earlier work
Klebsiella spp. = conditions: cited from earlier work
[6] = MIC combination / MIC monotherapy

- MIC ([2]; Enterococcus faecalis, antimicrobial alone, read-out: MIC Monotherapy (X)): 4000 µg/mL
- MIC combination dual therapy (Y) ([2]; in FLC + CHX combination): 500 to 2000 µg/mL
- MIC (Candida albicans (CA); Candida albicans, antimicrobial alone, read-out: MIC Monotherapy (X)): 4000 µg/mL
- MIC combination dual therapy (Y) (Candida albicans (CA); in FLC + CHX combination): 2000 µg/mL
- MIC ([3]; Pseudomonas aeruginosa, antimicrobial alone, read-out: MIC Monotherapy (X)): 16000 µg/mL
- MIC combination dual therapy (Y) ([3]; in FLC + CHX combination): 4000 µg/mL
- MIC ([4]; Staphylococcus aureus, MRSA, antimicrobial alone, read-out: MIC Monotherapy (X)): 1000 µg/mL
- MIC combination dual therapy (Y) ([4]; in FLC + CHX combination): 250 to 500 µg/mL
Compound: [H]/N=C(\N/C(=N/[H])NCCCCCCNC(=N)NC(=N)Nc1ccc(Cl)cc1)Nc1ccc(Cl)cc1 [Chlorhexidine, chlorhexidine]
- MIC of chlorhexdine (Streptococcus mutans): 0.9 to 4 µg/mL
- MIC of chlorhexdine (Porphyromonas gingivalis): 0.9 µg/mL
- MIC of chlorhexdine (Escherichia coli): 2 to 16 µg/mL
- MIC of chlorhexdine (Enterococcus faecalis): 4 to 16 µg/mL
- MIC of chlorhexdine (Lactobacillus reuteri): 0.125 to 4 µg/mL
- MIC of chlorhexdine (Aspergillus spp.): 8 to 64 µg/mL
- MIC of chlorhexdine [1]: 2 to 8 µg/mL
- Ratio Y/X [2, 6]: 0.125-0.5
- Ratio Y/X (Candida albicans (CA); [6]): 0.5
- Ratio Y/X [3, 6]: 0.25
- Ratio Y/X [4, 6]: 0.25-0.5
- MIC of chlorhexdine (Pseudomonas aeruginosa): 16 to 32 µg/mL
- MIC of chlorhexdine [5]: 0.5 to 2 µg/mL
- MIC of chlorhexdine (Klebsiella spp.): 8 to 16 µg/mL
